Results on six compounds are retold here after patent US20070185153A1 (priority 2005, published 2007).

Counter-ions that a name gives are not always drawn.

One experiment concerns panel of Gram-positive organisms and panel of Gram-negative organisms. As to the kind of experiment: organism not typed. The experiment is classed as cell-based. The note with it: read-out: MIC (minimum inhibitory concentration).
As for `O=c1c(Cl)cc2ncc(F)c3c2n1CC3(O)CN1CCC(NCc2cc3c(cn2)OCCO3)CC1` (racemic) [Example 24, (4R/S)-8-Chloro-4-({4-[(2,3-dihydro[1,4]dioxino[2,3-c]pyridin-7-ylmethyl)amino]-1-piperidinyl}methyl)-3-fluoro-4-hydroxy-4,5-dihydro-7H-pyrrolo[3,2,1-de]-1,5-naphthyridin-7-one dihydrochloride], the MIC was at most 4 µg/mL.
On to `O=c1[nH]c2ccccc2nc1CNC1CCN(C[C@]2(O)Cn3c(=O)ccc4ncc(F)c2c43)CC1` [Example 38], for which the MIC was at most 4 µg/mL.
On to `O=c1[nH]c(CNC2CCN(C[C@]3(O)Cn4c(=O)ccc5ncc(F)c3c54)CC2)nc2ccccc12` [Example 39], for which the MIC is at most 4 µg/mL.
Same read-out and setting: with `CC(C)n1nnc2cc(CNC3CCN(C[C@]4(O)Cn5c(=O)ccc6ncc(F)c4c65)CC3)ccc21` [Example 47] the figure was at most 8 µg/mL; with `COc1cnc2ccc(=O)n3c2c1[C@](O)(CN1CCC(NCc2cc4c(cn2)OCCO4)CC1)C3` [Example 65], at most 8 µg/mL.

Staying with this experiment, now noted: read-out: MIC values.
Turning to `COc1cnc2ccc(=O)n3c2c1[C@](O)(CN1CCC(NCc2cc4c(nn2)OCCO4)CC1)C3` [Example 66], the MIC was at least 16 µg/mL.
